The text below walks through data of patent publication US6399629B1, “Efflux pump inhibitors” (priority 1998, dated 2002).

For this test, the system named is Pseudomonas aeruginosa PAM1001. Nature of the test: microbe, parasite or virus in culture. The following applies: for Inhibition (%) of growth of P. aeruginosa PAM1001: Levofloxacin 0.25 μg/mL; for inhibition at 2.5 µg/mL / inhibition at 5 µg/mL / inhibition at 10 µg/mL / inhibition at 20 µg/mL / inhibition at 40 µg/mL: Pseudomonas aeruginosa, PAM1001, read-out: Inhibition (%) of growth of P. aeruginosa PAM1001. Type of test: cell-based. The protocol:
For compounds labeled with the prefix ‘D’, potentiation is measured by inhibition of growth of Pseudomonas aeruginosa PAM1001 at varying concentrations of efflux pump inhibitors (EPIs) in the presence of levofloxacin (0.25 microg/mL). Bacteria are grown in Mueller Hinton Broth (MHB, Difco) with an initial inoculum of 1×10^6 CFU/mL. Kinetics of bacterial growth is monitored, during 18 h of incubation at 37° C., by measurement of the culture absorbance at 650 nm using a 96-well plate spectrophotometer (SpectraMax, Molecular Devices). The inhibitory effect of EPIs is expressed as a percentage of growth inhibition compared to a control bacterial culture grown in the presence of 0.25 microg/mL levofloxacin but without EPIs.

The mark [1] stands for this setting: Concentration of Compound 2.5 μg/mL.
[2] abbreviates: Concentration of Compound 5 μg/mL.
Setting [3] is: Concentration of Compound 10 μg/mL.
[4] abbreviates: Concentration of Compound 20 μg/mL.
The mark [5] stands for this setting: Concentration of Compound 40 μg/mL.

Structures can show the parent of a compound that is named as a salt.

`Cl.Cl.NCC(=O)N[C@H]1CN[C@H](C(=O)NCc2ccc(-c3ccccc3)cc2)C1` (relative stereo) [Compound D316, trans-4-Glycylmino-L-Proline 4-Phenylbenzylamide Dihydrochloride]: the “Inhibition (%) of growth of P. aeruginosa PAM1001” value turned out to be 20% under setting [1]; 20% under setting [2]; 21% under setting [3]; 82% under setting [4]; 100% under setting [5].
For the compound `Cl.Cl.Cl.NCC(=O)N[C@H]1CN[C@H](C(=O)Nc2nc(-c3ccccc3)cs2)C1` (relative stereo) [Compound D326, trans 4GlycylaminoL-Proline 4-Phenylthiazol-2-ylamide Trihydrochloride], the “Inhibition (%) of growth of P. aeruginosa PAM1001” value reads like this: under setting [1], 18%; under setting [2], 19%; under setting [3], 17%; under setting [4], 13%; under setting [5], 74%.
As for `Cl.Cl.Cl.NCC(=O)N[C@H]1CN[C@H](C(=O)Nc2cnc3ccc(Cc4ccccc4)cc3c2)C1` (relative stereo) [Compound D327, trans-4-Glycylamino-L-Proline 3-(6-Benzyl)quinolyl-amide Trihydrochloride], the “Inhibition (%) of growth of P. aeruginosa PAM1001” value by setting is: under setting [1], 20%; under setting [2], 19%; under setting [3], 99%; under setting [4], 100%; under setting [5], 100%.
`Cl.Cl.NCC(=O)N[C@H]1CN[C@H](C(=O)N2CCN(c3ccc(Cl)cc3)CC2)C1` (relative stereo) [Compound D403, 1-(N-trans-4-Glycylamino-L-Prolyl)-4-(4-Chlorophenyl)piperazine Dihydrochloride]: the “Inhibition (%) of growth of P. aeruginosa PAM1001” value turned out to be 25% under setting [1]; 22% under setting [2]; 22% under setting [3]; 4% under setting [4]; 61% under setting [5].
As to `NCCC1CN[C@H](C(=O)N2C[C@H](NC(=O)[C@H](O)CCc3ccccc3)C[C@H]2C(=O)Nc2cnc3ccccc3c2)C1` (stereo partly drawn) [Compound D110, 4-(2-Aminoethyl)-Prolyl-trans-4-((R)-2-Hydroxy-4-Phenylbutyrylamino)-L-Proline 3-Quinolylamide Trihydrochloride], the inhibition at 2.5 µg/mL amounted to 20%, the inhibition at 5 µg/mL is 20%, the inhibition at 10 µg/mL is 100% and the inhibition at 20 µg/mL is 100%. The inhibition at 40 µg/mL was 100%.
As for `NCCC[C@@H](N)C(=O)N1C[C@H](NC(=O)CCCc2ccccc2)C[C@H]1C(=O)Nc1ccc2c(c1)CCC2` [Compound D121, D-Ornithyl-trans-4-(4-Phenylbutanoyl)amino-L-Proline 5-Indanylamide], the inhibition at 2.5 µg/mL came out at 15%, the inhibition at 5 µg/mL came out at 99%, the inhibition at 10 µg/mL was 100% and the inhibition at 20 µg/mL was found to be 100%. The inhibition at 40 µg/mL came out at 100%.
As to `NCCC[C@H](N)C(=O)N1C[C@@H](NC(=O)CCCc2ccccc2)C[C@H]1C(=O)Nc1ccc2c(c1)CCC2` [Compound D122, L-Ornithyl-cis-4-(4-phenylbutanoyl)amino-L-proline 5-Indanylamide], the inhibition at 2.5 µg/mL worked out at 16%, the inhibition at 5 µg/mL is 99%, the inhibition at 10 µg/mL was found to be 100% and the inhibition at 20 µg/mL amounted to 100%. Moreover, the inhibition at 40 µg/mL came to 99%.
`NCCC[C@@H](N)C(=O)N1C[C@@H](NC(=O)CCCc2ccccc2)C[C@H]1C(=O)Nc1ccc2c(c1)CCC2` [Compound D124, D-Ornithylcis-4-(4-Phenylbutanoyl)amino-L-Proline 5-Indanylamide Dihydrochloride]: the inhibition at 2.5 µg/mL came to 19%, the inhibition at 5 µg/mL came out at 100%, the inhibition at 10 µg/mL stood at 100% and the inhibition at 20 µg/mL came to 100%. For the same compound, the inhibition at 40 µg/mL came to 100%.
With `NCC(O)C[C@H](N)C(=O)N1C[C@H](NC(=O)CCCc2ccccc2)C[C@H]1C(=O)Nc1ccc2c(c1)CCC2` (stereo partly drawn) [Compound D125, 4-Hydroxy-L-Ornithyl-trans-4-(4-Phenylbutanoyl)amino-L-Proline 5-Indanylamide Dihydrochloride], the inhibition at 2.5 µg/mL amounted to 15%, the inhibition at 5 µg/mL is 100%, the inhibition at 10 µg/mL stood at 100% and the inhibition at 20 µg/mL was determined as 100%. Moreover, the inhibition at 40 µg/mL came to 100%.
`NCC(=O)N[C@H]1CN[C@H](C(=O)N[C@H](CCc2ccccc2)C(=O)Nc2cnc3ccccc3c2)C1` [Compound D201, trans-4-Glycylamino-L-Prolyl-D-Homophenylalanine 3-Quinolylamide Trihydrochloride]: the inhibition at 2.5 µg/mL is 17%, the inhibition at 5 µg/mL is 9%, the inhibition at 10 µg/mL was found to be 99% and the inhibition at 20 µg/mL came out at 100%. Besides, the inhibition at 40 µg/mL turned out to be 100%.
Consider `N[C@H]1CN[C@H](C(=O)N[C@H](CCc2ccccc2)C(=O)Nc2cnc3ccccc3c2)C1` [Compound D202, trans-4-Amino-L-Prolyl-D-Homophenylalanine 3-Quinolylamide Trihydrochloride], for which the inhibition at 20 µg/mL stood at 21% and the inhibition at 40 µg/mL was found to be 86%.
In the case of `NCC(=O)N[C@H]1CN[C@H](C(=O)N[C@H](CCc2ccccc2)C(=O)Nc2ccc3c(c2)CCC3)C1` [Compound D203, trans-4-Glycylamino-L-Prolyl-D-Homophenylalanine 5-Indanylamide Dihydrochloride], the inhibition at 2.5 µg/mL stood at 18%, the inhibition at 5 µg/mL turned out to be 17%, the inhibition at 10 µg/mL was 100% and the inhibition at 20 µg/mL turned out to be 100%. The inhibition at 40 µg/mL was 100%.
As for `Cc1ccc(NC(=O)[C@@H](CCc2ccccc2)NC(=O)[C@@H]2C[C@@H](NC(=O)CN)CN2)cc1C` [Compound D204, trans-4-Glycylamino-L-Prolyl-D-Homophenylalanine 3,4-Dimethylphenylamide Dihydrochloride], the inhibition at 2.5 µg/mL came to 18%, the inhibition at 5 µg/mL was 16%, the inhibition at 10 µg/mL came to 3% and the inhibition at 20 µg/mL was found to be 100%. Also, the inhibition at 40 µg/mL was found to be 100%.
Consider `Cc1cc(C)cc(NC(=O)[C@@H](CCc2ccccc2)NC(=O)[C@@H]2C[C@@H](NC(=O)CN)CN2)c1` [Compound D205, trans-4-Glycylamino-L-Prolyl-D-Homophenylalanine 3,5-Dimethylphenylamide Dihydrochloride], for which the inhibition at 2.5 µg/mL is 16%, the inhibition at 5 µg/mL is 13%, the inhibition at 10 µg/mL was 100% and the inhibition at 20 µg/mL amounted to 100%. For the same compound, the inhibition at 40 µg/mL came out at 100%.
As for `Cc1cc(NC(=O)[C@@H](CCc2ccccc2)NC(=O)[C@@H]2C[C@@H](NC(=O)CN)CN2)ccc1Cl` [Compound D206, trans-4-Glycylamino-L-Prolyl-D-Homophenylalanine 4-Chloro-3-Methylphenylamide Dihydrochloride], the inhibition at 2.5 µg/mL worked out at 16%, the inhibition at 5 µg/mL was found to be 10%, the inhibition at 10 µg/mL was found to be 100% and the inhibition at 20 µg/mL was found to be 99%. In addition, the inhibition at 40 µg/mL came out at 100%.
Regarding `NCC(=O)N[C@H]1CN[C@H](C(=O)NCC(=O)Nc2ccc(Cc3ccccc3)cc2)C1` [Compound D210, trans-4-Glycylamino-L-Prolylglycine 4-Benzylphenyl-amide Dihydrochloride], the inhibition at 2.5 µg/mL is 14%, the inhibition at 5 µg/mL was 16%, the inhibition at 10 µg/mL is 12% and the inhibition at 20 µg/mL worked out at 99%. The inhibition at 40 µg/mL turned out to be 100%.
`NCC(=O)N[C@H]1CN[C@H](C(=O)Nc2ccc(Oc3ccccc3)cc2)C1` [Compound D301, trans-4Glycylamino-L-Proline 4-Phenoxyphenylamide Dihydrochloride]: the inhibition at 2.5 µg/mL is 17%, the inhibition at 5 µg/mL worked out at 14%, the inhibition at 10 µg/mL is 81% and the inhibition at 20 µg/mL was determined as 99%. Also, the inhibition at 40 µg/mL was 99%.
For the compound `Cc1ccc(Oc2ccc(NC(=O)[C@@H]3C[C@@H](NC(=O)CN)CN3)cc2)cc1` [Compound D302, trans-4-Glycylamino-L-Proline 4-(4′-Methylphenoxy)-phenylamide Dihydrochloride], the inhibition at 2.5 µg/mL is 22%, the inhibition at 5 µg/mL came out at 17%, the inhibition at 10 µg/mL was determined as 97% and the inhibition at 20 µg/mL turned out to be 100%. The inhibition at 40 µg/mL turned out to be 100%.
`NCC(=O)N[C@H]1CN[C@H](C(=O)Nc2ccc(Oc3ccc(Cl)cc3)cc2)C1` [Compound D303, trans-4-Glycylamino-L-Proline 4-(4′-Chlorophenoxy)-phenylamide Dihydrochloride]: the inhibition at 2.5 µg/mL came to 18%, the inhibition at 5 µg/mL was found to be 91%, the inhibition at 10 µg/mL turned out to be 100% and the inhibition at 20 µg/mL worked out at 100%. Moreover, the inhibition at 40 µg/mL stood at 99%.
